# Reference: ChEMBL document CHEMBL1123958, “Synthesis and antiviral properties of (E)-5-(2-bromovinyl)-2'-deoxycytidine-related compounds” (J Med Chem, 1988)
# System: Vaccinia virus
# Test: Concentration required to reduce vaccinia virus induced cytopathogenicity in rabbit cell kidney culture
# Type: functional, organism-based
# Settings: Orthopoxvirus vaccinia
row,SMILES,Concentration [µg/mL]
1,Cc1cn(C2CC(O)C(CCl)O2)c(=O)nc1-n1cncn1 (centres undefined),> 10
2,O=c1nc(-n2cncn2)c(/C=C/Br)cn1C1CC(O)C(CCl)O1 (centres undefined),> 100
3,O=c1nc(-n2cncn2)c(/C=C/Br)cn1[C@H]1C[C@H](O)[C@@H](CO)O1,7
4,CC(=O)OC[C@H]1O[C@@H](n2cc(/C=C/Br)c(-n3cncn3)nc2=O)C[C@@H]1OC(C)=O,20
5,CC(=O)OC[C@H]1O[C@@H](n2cc(C)c(-n3cncn3)nc2=O)C[C@@H]1OC(C)=O,> 40
6,CC(=O)OC[C@H]1O[C@@H](n2cc(/C=C/Br)c(=O)[nH]c2=O)C[C@@H]1OC(C)=O,40
7,Nc1nc(=O)n([C@H]2C[C@H](O)[C@@H](CO)O2)cc1/C=C/Br,> 400
8,Cc1cn([C@H]2C[C@H](O)[C@@H](CO)O2)c(=O)nc1-n1cncn1,> 40
9,O=c1[nH]c(=O)n([C@H]2C[C@H](O)[C@@H](CO)O2)cc1/C=C/Br [BRIVUDINE],10
